The values below come from US10864251B2, “Peptides of syndecan-1 for inhibiting angiogenesis” (Wisconsin Alumni Research Foundation, priority 2006, dated 2020).

Where no end group is shown, it is not given here.

The subject of series [1] is B82L fibroblasts. It counts as cell-based, mouse. Conditions: 6 h. The procedure: FIGS. 6A-6H—Inhibition of B82L fibroblast and HMEC-1 cell attachment and spreading on VN by synstatin82-130. B82L fibroblasts, which rely on the αvβ5 integrin for attachment to VN, and human dermal microvascular endothelial cells, which rely on both the αvβ3 and αvβ5 integrins for attachment to VN, were plated in the absence of peptide (FIGS. 6A, 6E) or in the presence of 0.1 (FIGS. 6B, 6F), 0.3 (FIGS. 6C, 6G) or 1 μM (FIGS. 6D, 6H) synstatin82-130 for 2 hr and processed as described in FIG. 2.
Cell adhesion and spreading assays were performed with modification to the previous procedures (Lebakken and Rapraeger, 1996. Briefly, human plasma vitronectin or fibronectin at 10-30 μg/ml were applied to nitrocellulose-coated ten well slides (Erie Scientific) and incubated for 1-2 h at 37° C. Slides were blocked with 1.0% heat-denatured bovine serum albumin for a minimum of 30 min at 37° C. Cells were detached from the substratum using 5 mM EDTA in Tris-buffered saline and resuspended in HEPES-buffered culture medium containing 0.1% heat-denatured BSA. Cells were plated at a density of 15,000 cells per well and allowed to attach and spread for 2 h prior to fixation in 4% paraformaldehyde in CMF-PBS. For fluorescence microscopy, fixed cells were permeabilized in 0.2% Triton X-100, labeled with rhodamine-conjugated phalloidin and analyzed using fluorescence microscopy. […]

Series [2] in a line: Active SSTN in blood detected on dot blots. It counts as in vivo. Conditions: mouse. The procedure: Lastly, SSTN was tested in the in vivo corneal angiogenesis assay. Polyhydroxyethylmethylacrylate pellets (0.25 μL) containing 67 ng FGF-2 and sucralfate as a slow release agent were implanted into the avascular mouse cornea. After seven days, fluorescent dextran was injected suborbitally to highlight the vascular system and the mice were sacrificed. […] To supply the inhibitor in a more quantifiable and physiological manner, recombinant mS1ED or SSTN were delivered systemically via Alzet osmotic pumps implanted subcutaneously on the backs of the animals. […] To correlate this with the active concentration in the plasma, the inventors took advantage of rabbit polyclonal antibodies generated against mS1ED, which detect active SSTN on dot blots. […] Using this method to detect active SSTN in the blood collected from animals after 1 week of SSTN treatment, SSTN is shown to be in the blood at 125-150 nM when present at 10 μM in the osmotic pump.

Series [3] relates to syndecan-1 association with the αvβ3 and αvβ5 integrins. The series is described as follows: Co-immunoprecipitation of β3/β5 integrin with syndecan-1 from HMEC-1 cells. As to conditions: HMEC-1, 30 μM GST-mS1ED or 1 μM SSTN. It counts as binding, human. From the text: (§1) FIGS. 8A-8D—SSTN disrupts association of syndecan-1 with the αvβ3 and αvβ5 integrins. (FIG. 8A) Diagram of mouse syndecan-4 (mS4), human syndecan-1 (hS1) and mouse syndecan-1 (mS1) and mS1 deletion mutants showing which proteoglycans are able to activate the αvβ3 and αvβ5 integrins. (FIG. 8B) Flow cytometry of human aortic endothelial cells (HAEC), human dermal microvascular endothelial cells (HMEC-1) or mouse aortic endothelial cells (MAEC) using human or mouse-specific antibodies for syndecan-1, αvβ3, and αvβ5. The β5 subunit is detected by Western blot in mouse cells and is compared to B82L fibroblasts known to express this integrin; (FIG. 8C) Human syndecan-1 is immunoprecipitated from HMEC-1 cells in the presence or absence of 30 μM GST, 30 μM GST-mS1ED (mouse syndecan-1 ectodomain), or 1 μM SSTN and detected on blots along with co-precipitating β3 or β5 integrin. (FIG. 8D) Human syndecan-1 is immunoprecipitated from MDA-MB-231 human mammary carcinoma cells expressing full-length mouse syndecan-1 (F1-mS1), a mouse mutant bearing deletion of amino acids 67-121 (mS1^Δ67-121), or vector alone (NEO) and blotted for the co-precipitation of the αvβ3 integrin by detection of the β3 subunit. […]

For series [4], the target named is T1, syndecan-1 association with the αvβ3 integrin (Homo sapiens, UniProt P05106+P06756).
T1 construct: endogenous in cells; host or cells: MDA-MB-231 human mammary carcinoma cells (some also transfected with mouse syndecan-1 constructs)
The series can be described thus: Co-immunoprecipitation of αvβ3 integrin with syndecan-1 from MDA-MB-231 cells. It counts as binding.
Text: as §1

The subject of series [5] is MDA-MB-231 human mammary carcinoma cells. Conditions: MDA-MB-231 on vitronectin; shown previously (Beauvais et al., 2004); read-out: IC50, block of cell spreading on VN; cited from earlier work.

T1 sequence (P06756 31-889 limits assumed): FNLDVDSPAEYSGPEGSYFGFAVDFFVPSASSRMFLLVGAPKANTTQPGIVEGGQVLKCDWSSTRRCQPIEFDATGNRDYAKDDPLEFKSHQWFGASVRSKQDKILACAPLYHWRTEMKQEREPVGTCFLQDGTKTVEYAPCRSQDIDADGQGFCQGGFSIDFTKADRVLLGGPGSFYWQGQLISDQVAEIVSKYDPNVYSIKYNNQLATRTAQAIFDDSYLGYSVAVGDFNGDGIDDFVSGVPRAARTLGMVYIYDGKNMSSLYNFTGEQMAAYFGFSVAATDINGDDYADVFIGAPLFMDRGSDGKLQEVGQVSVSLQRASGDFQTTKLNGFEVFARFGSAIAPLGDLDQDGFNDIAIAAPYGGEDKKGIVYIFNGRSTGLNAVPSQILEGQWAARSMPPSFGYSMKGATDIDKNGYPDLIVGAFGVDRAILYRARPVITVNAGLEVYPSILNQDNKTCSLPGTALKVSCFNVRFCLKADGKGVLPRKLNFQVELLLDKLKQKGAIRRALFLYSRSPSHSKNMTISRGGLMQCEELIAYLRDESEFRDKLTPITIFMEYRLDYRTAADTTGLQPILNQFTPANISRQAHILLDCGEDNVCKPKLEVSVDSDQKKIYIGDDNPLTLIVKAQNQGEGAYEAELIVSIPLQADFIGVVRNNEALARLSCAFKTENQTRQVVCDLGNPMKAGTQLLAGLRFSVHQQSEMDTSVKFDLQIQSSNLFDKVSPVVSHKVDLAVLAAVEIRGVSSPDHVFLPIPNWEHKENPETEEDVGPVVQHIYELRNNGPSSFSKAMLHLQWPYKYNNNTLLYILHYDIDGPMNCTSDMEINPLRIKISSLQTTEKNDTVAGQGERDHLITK
T1 sequence (P06756 891-1048 limits assumed): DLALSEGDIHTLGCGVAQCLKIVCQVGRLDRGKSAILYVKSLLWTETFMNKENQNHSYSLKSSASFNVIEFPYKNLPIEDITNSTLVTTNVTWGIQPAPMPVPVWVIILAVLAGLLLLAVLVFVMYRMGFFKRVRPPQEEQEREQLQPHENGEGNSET
T1 sequence (P05106 27-788): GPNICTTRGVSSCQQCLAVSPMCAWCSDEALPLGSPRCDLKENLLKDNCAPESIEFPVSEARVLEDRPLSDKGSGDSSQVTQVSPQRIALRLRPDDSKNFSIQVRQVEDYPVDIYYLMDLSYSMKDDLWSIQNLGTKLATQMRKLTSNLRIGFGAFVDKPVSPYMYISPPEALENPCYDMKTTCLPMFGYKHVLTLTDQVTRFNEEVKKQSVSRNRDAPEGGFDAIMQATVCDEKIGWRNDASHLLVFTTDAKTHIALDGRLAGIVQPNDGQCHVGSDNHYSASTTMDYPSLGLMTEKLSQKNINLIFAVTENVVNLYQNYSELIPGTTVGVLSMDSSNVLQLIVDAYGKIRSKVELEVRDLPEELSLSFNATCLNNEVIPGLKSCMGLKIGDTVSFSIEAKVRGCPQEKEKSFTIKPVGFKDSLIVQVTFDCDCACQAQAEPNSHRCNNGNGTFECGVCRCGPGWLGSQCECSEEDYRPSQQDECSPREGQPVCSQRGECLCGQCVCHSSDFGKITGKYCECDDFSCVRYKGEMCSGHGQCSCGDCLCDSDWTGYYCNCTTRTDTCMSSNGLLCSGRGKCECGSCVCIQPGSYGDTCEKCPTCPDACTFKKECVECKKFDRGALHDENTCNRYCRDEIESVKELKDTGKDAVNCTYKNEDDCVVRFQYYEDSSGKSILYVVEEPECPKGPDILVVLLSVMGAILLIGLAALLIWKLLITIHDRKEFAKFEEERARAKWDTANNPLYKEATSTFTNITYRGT

“SNTETAFTSVLPAGEKPEEGEPVLHVEAEPGFTARDKEKEVTTRPRETV [synstatin82-130]”: the IC50 – broadly, the point on the concentration scale where inhibition reaches its midpoint – in series [1] is roughly 100 nM. Also, the level at time molar at 168 h in series [2] (blood, sc, after 1 week, 10 μM in the osmotic pump, read-out: concentration in the blood) was 125 to 150 nM. Further, in series [2] (suggested from blood level), the “clearance rate in the plasma” value was in the range of 10 to 13 h.

B1: S1ED: recombinant mouse Sdc1 ectodomain (amino acids 18-251), expressed in bacteria as GST fusion or 6×His-tagged protein (protein)
chain: QPALPQIVAVNVPPEDQDGSGDDSDNFSGSGTGALPDTLSRQTPSTWKDVWLLTATPTAPEPTSSNTETAFTSVLPAGEKPEEGEPVLHVEAEPGFTARDKEKEVTTRPRETVQLPITQRASTVRVTTAQAAVTSHPHGGMQPGLHETSAPTAPGQPDHQPPRVEGGGTSVIKEVVEDGTANQLPAGEGSGEQDFTFETSGENTAVAAVEPGLRNQPPVDEGATGASQSLLDRK
modifications: left off: a dimerising Fc or GST
notes: recombinant mouse Sdc1 ectodomain (amino acids 18-251), expressed in bacteria as GST fusion or 6×His-tagged protein
Consider B1, for which the “co-precipitation of β3 and β5 integrin with human syndecan-1” value in series [3] is on record as “displace the integrins”. The “co-immunoprecipitation of αvβ3 integrin with human or mouse syndecan-1” value in series [4] was “competed”. Moreover, the IC50 in series [5] is 3000 to 10000 nM.
